In US8349880B2, “Bicyclic compounds for the reduction of beta-amyloid production” (Bristol-Myers Squibb Company, priority 2009, dated 2013) one finds IC50 data, which are given here for 23 compounds.

The experiment relates to Aβ1-42 production. As to the kind of experiment: Cellular assay for inhibition of Aβ1-42 production (H4 APP751 SWE clone 8.20). As to conditions: 19 h, H4 APP751 SWE clone 8.20 cells, 19 h incubation. The class given is cell-based. As to the method: Cellular assays for inhibition of Aβ1-40 and Aβ1-42 production
H4 cells stably transfected with APP751 containing the Swedish mutation (H4 APP751 SWE clone 8.20, developed at BMS) were maintained in log phase through twice weekly passage at a 1:20 split. For IC50 determinations, 30 μl cells (1.5×10^4 cells/well) in DMEM media containing 0.0125% BSA (Sigma A8412) were plated directly into 384-well compound plates (Costar 3709) containing 0.1 μl serially diluted compound in DMSO. Following incubation for 19 h in 5% CO2 at 37° C., plates were briefly centrifuged (1000 rpm, 5 min). A 10 μl aliquot from each well was transferred to a second assay plate (Costar 3709) for Aβ40 measurements. Antibody cocktails were freshly prepared by dilution into 40 mM Tris-HCl (pH 7.4) with 0.2% BSA and added to assay plates. For Aβ42 measurements, antibodies specific for the Aβ42 neoepitope (565, developed at BMS; conjugated to the Wallac reagent (Perkin Elmer)) and the N-terminal sequence of Aβ peptide (26D6, developed at SIBIA; conjugated to APC (Perkin Elmer)) were mixed and 20 μl of the mixture was added to each well of the incubated cell plate yielding a final concentration of 0.8 ng/well 565 and 75 ng/well 26D6. For the Aβ40 measurements, antibodies specific for the Aβ40 neoepitope (TSD, developed at BMS; conjugated to the Wallac reagent (Perkin Elmer)) and 26D6 as described above were mixed and 20 μl of the mixture was added to the 10 μl aliquots which had been removed previously from the cell plate yielding a final concentration of 1.6 ng/well TSD and 17.5 ng/well 26D6. Assay plates containing antibodies were sealed with aluminum foil and incubated overnight at 4° C. Signal was determined using a Viewlux counter (Perkin Elmer) and IC50 values determined using curve fitting in CurveMaster (Excel Fit based).

Setting [1] is: read-out: Activity Rating (based on Aβ42 cellular IC50 values).
Where [2] appears, read: read-out: Activity Rating (Aβ42 cellular IC50, given as a number).

pIC50: −log10 of the molar value. Read-outs that look alike come from different tables or passages of the source.

Regarding `COc1cc(Nc2nc3n(n2)CCCCC3c2ccc(C#N)cc2)ccc1-n1cnc(Cl)c1` (centres unmarked) [Example 57, 4-(2-(4-(4-chloro-1H-imidazol-1-yl)-3-methoxyphenylamino)-6,7,8,9-tetrahydro-5H-[1,2,4]triazolo[1,5-a]azepin-9-yl)benzonitrile], the negative logarithm of the IC50 (pIC50) under setting [1] was 7.00 to 8.00.

Turning to `COc1cc(Nc2nc3n(n2)C[C@H](F)[C@H](F)C[C@H]3c2ccc(F)cc2)ccc1-n1cnc(Cl)c1` (relative stereo) [Example 91, rel-(6S,7R,9S)—N-(4-(4-chloro-1H-imidazol-1-yl)-3-methoxyphenyl)-6,7-difluoro-9-(4-fluorophenyl)-6,7,8,9-tetrahydro-5H-[1,2,4]triazolo[1,5-a]azepin-2-amine 2,2,2-trifluoroacetate], under setting [1], the pIC50 is more than 8.00. With `Cc1ncn(-c2ccc(Nc3nc4n(n3)CCC3(CC4c4ccc(F)cc4)OCCO3)cc2F)n1` (centres unmarked) [Example 158, N-(3-fluoro-4-(3-methyl-1H-1,2,4-triazol-1-yl)phenyl)-9-(4-fluorophenyl)-5,6,8,9-tetrahydrospiro[[1,2,4]triazolo[1,5-a]azepine-7,2′-[1,3]dioxolan]-2-amine 2,2,2-trifluoroacetate], the pIC50 under setting [2] is 7.80. On to `COc1cc(Nc2nc3n(n2)CCCC[C@@H]3c2ccc(OC(F)(F)F)cc2)ccc1-n1cnc(Cl)c1` (single isomer, unassigned) [Example 125], for which the pIC50 under setting [1] is more than 8.00. Still for that read-out and setting: then `COc1cc(Nc2nc3n(n2)CCCC[C@@H]3c2ccc(Cl)cc2Cl)ccc1-n1cnc(Cl)c1` (single isomer, unassigned) [Example 21], with more than 8.00. Turning to `COc1cc(Nc2nc3n(n2)CCCC[C@@H]3c2cccc(F)c2)ccc1-n1cnc(Cl)c1` (single isomer, unassigned) [Example 46], the pIC50 under setting [1] is 7.00 to 8.00. On the same count and under the same terms, then `COc1cc(Nc2nc3c(s2)CC(OC)(OC)CC3c2ccc(F)cc2)ccc1-n1cnc(Cl)c1` (centres unmarked) [Example 84, N-(4-(4-chloro-1H-imidazol-1-yl)-3-methoxyphenyl)-4-(4-fluorophenyl)-6,6-dimethoxy-4,5,6,7-tetrahydrobenzo[d]thiazol-2-amine], with 7.00 to 8.00; and `COc1cc(Nc2nc3n(n2)CCC(OC)(OC)CC3c2ccc(F)cc2)ccc1-n1cnc(Cl)c1` (centres unmarked) [Example 145, N-(4-(4-chloro-1H-imidazol-1-yl)-3-methoxyphenyl)-9-(4-fluorophenyl)-7,7-dimethoxy-6,7,8,9-tetrahydro-5H-[1,2,4]triazolo[1,5-a]azepin-2-amine], with more than 8.00.

On to `COc1cc(Nc2nc3n(n2)CC=CCC3(C)C)ccc1-n1cnc(Cl)c1` [Example 9, (Z)—N-(4-(4-chloro-1H-imidazol-1-yl)-3-methoxyphenyl)-9,9-dimethyl-8,9-dihydro-5H-[1,2,4]triazolo[1,5-a]azepin-2-amine 2,2,2-trifluoroacetate], for which the pIC50 under setting [2] was 6.96. Take `Cc1ncn(-c2ccc(Nc3nc4n(n3)CCCC[C@H]4c3ccc(F)cc3)cc2F)n1` (single isomer, unassigned) [Example 26]: under setting [1], the pIC50 was 7.00 to 8.00. Same read-out and setting: for `COc1cc(Nc2nc3n(n2)CCCCC3c2ccc(Cl)cc2)ccc1-c1cnn(C)c1` (centres unmarked) [Example 34, 9-(4-chlorophenyl)-N-(3-methoxy-4-(1-methyl-1H-pyrazol-4-yl)phenyl)-6,7,8,9-tetrahydro-5H-[1,2,4]triazolo[1,5-a]azepin-2-amine 2,2,2-trifluoroacetate] the value was 7.00 to 8.00. Consider `COc1cc(Nc2nc3n(n2)CCCCC3c2ccc(F)cc2)ccc1-n1cnc(Cl)n1` (centres unmarked) [Example 33, N-(4-(3-chloro-1H-1,2,4-triazol-1-yl)-3-methoxyphenyl)-9-(4-fluorophenyl)-6,7,8,9-tetrahydro-5H-[1,2,4]triazolo[1,5-a]azepin-2-amine 2,2,2-trifluoroacetate], for which the pIC50 under setting [2] is 8.05. On to `CO/N=C1/CCn2nc(Nc3ccc(-n4cnc(Cl)c4)c(OC)c3)nc2C(c2ccc(F)cc2)C1` (centres unmarked) [Example 138, (E)-2-(4-(4-chloro-1H-imidazol-1-yl)-3-methoxyphenylamino)-9-(4-fluorophenyl)-8,9-dihydro-5H-[1,2,4]triazolo[1,5-a]azepin-7(6H)-one O-methyl oxime 2,2,2-trifluoroacetate], for which the pIC50 under setting [1] was 7.00 to 8.00. The same measure, in the same setting: then `COc1cc(Nc2nc3n(n2)CCCC[C@@H]3c2ccc(F)cc2)ccc1-n1cnc(Cl)c1` (single isomer, unassigned) [Example 18], with 7.00 to 8.00; and `COc1cc(Nc2nc3n(n2)C[C@H](O)[C@H](O)C[C@H]3c2ccc(F)cc2)ccc1-n1cnc(Cl)c1` (relative stereo) [Example 64, rel-(6S,7R,9S)-2-(4-(4-chloro-1H-imidazol-1-yl)-3-methoxyphenylamino)-9-(4-fluorophenyl)-6,7,8,9-tetrahydro-5H-[1,2,4]triazolo[1,5-a]azepine-6,7-diol 2,2,2-trifluoroacetate], with 7.00 to 8.00.

For `COc1cc(Nc2nc3n(n2)CCCC[C@H]3c2ccc(F)cc2)ccc1-n1cnc(Cl)n1` (single isomer, unassigned) [Example 87], under setting [1], the pIC50 was more than 8.00. Still for that read-out and setting: for `CCOc1ccc(C2CCCCn3nc(Nc4ccc(-n5cnc(C)n5)c(OC)c4)nc32)cc1` (centres unmarked) [Example 132, 9-(4-ethoxyphenyl)-N-(3-methoxy-4-(3-methyl-1H-1,2,4-triazol-1-yl)phenyl)-6,7,8,9-tetrahydro-5H-[1,2,4]triazolo[1,5-a]azepin-2-amine 2,2,2-trifluoroacetate] the value was 7.00 to 8.00. On to `COc1cc(Nc2nc3n(n2)CCCC[C@H]3c2ccc(OC(F)(F)F)cc2)cc(F)c1-n1cnc(C)n1` (single isomer, unassigned) [Example 168], for which the pIC50 under setting [1] is 7.00 to 8.00. As to `COc1cc(Nc2nc3c(s2)CCCC3(N)c2ccccc2)ccc1-n1cnc(C)n1` (centres unmarked) [Example 82, N2-(3-methoxy-4-(3-methyl-1H-1,2,4-triazol-1-yl)phenyl)-4-phenyl-4,5,6,7-tetrahydrobenzo[d]thiazole-2,4-diamine], the pIC50 under setting [2] is 6.72. Regarding `COc1cc(Nc2nc3n(n2)CCC(N2CCCC2)CC3c2ccc(F)cc2)ccc1-n1cnc(Cl)c1` (centres unmarked) [Example 143, N-(4-(4-chloro-1H-imidazol-1-yl)-3-methoxyphenyl)-9-(4-fluorophenyl)-7-(pyrrolidin-1-yl)-6,7,8,9-tetrahydro-5H-[1,2,4]triazolo[1,5-a]azepin-2-amine], the pIC50 under setting [1] is 7.00 to 8.00. For the compound `COc1cc(Nc2nc3n(n2)CCCCC3c2ccc(S(=O)(=O)C(F)(F)F)cc2)ccc1-n1cnc(C)n1` (centres unmarked) [Example 130, N-(3-methoxy-4-(3-methyl-1H-1,2,4-triazol-1-yl)phenyl)-9-(4-(trifluoromethylsulfonyl)phenyl)-6,7,8,9-tetrahydro-5H-[1,2,4]triazolo[1,5-a]azepin-2-amine 2,2,2-trifluoroacetate], the pIC50 under setting [1] is 7.00 to 8.00.

As for `COc1cc(Nc2nc3n(n2)CCCC[C@@H]3c2cccc(Cl)c2)ccc1-n1cnc(Cl)c1` (single isomer, unassigned) [Example 55], the pIC50 under setting [1] was more than 8.00. Same read-out and setting: then `COc1cc(Nc2nc3n(n2)CCCC[C@@H]3c2cc(F)c(F)c(F)c2)ccc1-n1cnc(Cl)c1` (single isomer, unassigned) [Example 52], with more than 8.00.
